Experimental data: patent US7138491B2, “Carboline-3-carboxylic acid modified related sequences of Ala-Arg-Pro-Ala-Lys, their synthesis and use as thromobolytic agent” (Guangzhou Bai Yun Shan Pharmaceutical Co., Ltd., priority 2003, dated 2006)
Marks after values point to notes of the source that are not given here.

Columns and labels:
fibrin plate = assay: In vitro fibrinolytic lysis on fibrin plate (fibrinogen-agarose); type: biochemical, rabbit; conditions: dosage per well differs per compound (0.8-2.2 μg; UK 5 IU); n = 6; NS control 21.01 ± 9.26
Procedure: The plates were prepared by mixing equal volumes of 0.3% rabbit fibrinogen and 0.95% agarose solutions, both dissolved in 50 mM of barbital buffer (pH 7.8, contained 1.66 mM of CaCl2, 0.68 mM of MgCl2 and 93.96 mM of NaCl)^[6]. The fibrinogen-agarose mixture was coagulated with […] thrombin (100 IU: ml) in the plastic dishes (its diameter is 90 mm and the depth of the fibrin plate is 1 mm). After 30 min at 4° C. an adequate number of wells, 5 mm in diameter, were perforated. To determine fibrinolytic activity […] aliquots of the tested pseudopeptides were added to each well, the plate was incubated, and areas of lysis were quantified as described for the regular fibrin plates.

[1] = test system: rabbit euglobulin fraction; assay: In vitro euglobulin clot lysis time (ECLT); type: biochemical; conditions: dosage differs per compound (1.3-6.7 μg; UK 5 IU); 96 well microtiter plate; n = 6; NS control 200.01 ± 15.26
Procedure: The rabbit euglobulin fraction was prepared according to the literature^[6]. Plasma diluted […] in distilled water was precipitated at pH 5.7 with acetic acid (0.25%). After 30 min at 4° C. the suspension was centrifuged at 2000 g for 15 min and the precipitate was resuspended to the initial plasma volume with 50 mM barbital buffer (pH 7.8, contained 1.66 mM of CaCl2, 0.68 mM of MgCl2 and 93.96 mM of NaCl). Euglobulin clot lysis time (ECLT) of the tested pseudopeptide was measured using a 96 well microtiter plate^[7] and the data are listed in Table 2.

thrombus = assay: In vivo thrombolytic activity, thrombus on steel helix in extracorporeal circulation; conditions: male Wistar rats; injected; dose differs per compound (3.1-8.2 mg/kg; UK 20000 IU); blood circulated 90 min; n = 10; NS control 12.31 ± 2.57
Procedure: Male Wistar rats weighing 200–300 g (purchased from Animal Center of Peking University) were anesthetized with pentobarbital sodium (80.0 mg/kg, ip). The right carotid artery and left vein jugular of the animals were separated. To the glass tube filled with artery blood (1.0 ml) from the right carotid artery of the animal a stainless steel filament helix (15 circles; L, 15 mm; D, 1.0 mm) was put immediately. After 15 minutes the helix with thrombus was carefully taken out and weighted exactly, which was put into the middle polyethylene tube. The polyethylene tube was full with heparin sodium (50 IU/ml of NS) and one end was inserted into the left jugular vein. Heparin sodium was injected via the other end of the polyethylene tube as the anticoagulant, following which the tested pseudopeptide was injected. The blood was circulated through the polyethylene tube for 90 min, after which the helix was taken out and weighted accurately.

Substance | Effect of the pseudopeptides on fibrin plate, areas of lysis, x ± SD (fibrin plate) | Euglobulin clot lysis time, x ± SD [1] | The reduction of thrombolytic mass, x ± SD (thrombus)
H-Ala-Arg-Pro-OH [compound 9] | 23.16 ± 9.05 mm^2 | 203.81 ± 29.50 min | 13.81 ± 2.50 mg
H-Arg-Arg-Pro-Ala-Lys-OH (H-RRPAK-OH) [compound 6] | 33.77 ± 10.05 mm^2 | 213.31 ± 27.75 min | 13.31 ± 2.75 mg
H-Arg-Pro-Ala-Lys-OH (H-RPAK-OH) [compound 7] | 125.33 ± 10.10^a mm^2 | 85.22 ± 20.40^a,b min | 18.22 ± 2.40^a mg
H-Asn-Arg-Pro-Ala-Lys-OH (H-NRPAK-OH) [compound 5] | 22.66 ± 9.46 mm^2 | 212.88 ± 29.66 min | 12.88 ± 2.66 mg
H-Gln-Arg-Pro-Ala-Lys-OH (H-QRPAK-OH) [compound 4] | 136.28 ± 10.62^a mm^2 | 86.28 ± 20.46^a,b min | 21.28 ± 3.46^1)2) mg
H-Gly-Arg-Pro-Ala-Lys-OH (H-GRPAK-OH) [compound 2] | 125.90 ± 11.15^a mm^2 | 89.90 ± 20.05^a,b min | 25.90 ± 2.05^1) mg
H-Lys-Arg-Pro-Ala-Lys-OH (H-KRPAK-OH) [compound 3] | 38.99 ± 9.06 mm^2 | 221.28 ± 23.46 min | 21.28 ± 3.46^1)2) mg
H-Pro-Ala-Lys-OH [compound 8] | 138.06 ± 9.39^a mm^2 | 80.68 ± 20.34^a,b min | 23.68 ± 2.34^a mg
